The values that follow come from article PMC6235002, “Born to sense: biophysical analyses of the oxygen sensing prolyl hydroxylase from the simplest animal Trichoplax adhaerens” (Hypoxia, 2018).

One may read the Km as the substrate concentration at which the rate is half of its maximum.

“Also recorded” adds a separate entry of the source. Where two headings read alike, the source gives them in different places.

The target of series [1] is T1, TaPHD^64-300 (Trichoplax adhaerens, UniProt I6QVT6). The series is described as follows: Steady-state O2-dependence of TaPHD (MALDI-TOF-MS). Format: biochemical. The following applies: TaPHD^64-300 with TaODD 25mer. Here is the method:
(§1) Notes: (A) Sequence alignment of TaHIFa, HsHIFa, and substrates of PHD-like enzymes in Dictyostelium discoideum (DdSkp1) and Pseudomonas putida (PpEF-Tu). […] Peptide hydroxylation was analyzed by MALDI-MS; the apparent non-enzymatic Met oxidation was subtracted. Data were fitted with the Michaelis-Menten equation using GraphPad Prism® (errors are indicated as standard deviations, n=3).
In order for the PHDs to act as hypoxia sensors in cells, their activity must be limited by oxygen availability. […] In order to study the O2 dependence of the TaPHD-catalyzed reaction, steady-state kinetics, using reported experimental conditions for HsPHD2;[29] were conducted. TaPHD^64-300 was reacted with its peptidic substrate in sealed glass-vials under varied oxygen concentrations,[29] the initial rates of TaODD 25mer hydroxylation were determined by MALDI–TOF-MS (Figure 2F and G).

The next series has as its system HsPHD2. The following applies: read-out: Km (O2); cited from earlier work.
Series [2] has as its target T1, TaPHD^64-300. Kind of series: MALDI-TOF-MS peptide hydroxylation steady-state kinetics, TaPHD^64-300. Format: biochemical. The following applies: for Km / kcat (peptide substrate): peptide varied, 3.5–7.0 µM enzyme, 50 µM (NH4)2Fe(II)(SO4)2, 4 mM ascorbate, 300 µM 2OG; for Km: 50 mM Tris pH 7.5, Michaelis-Menten fit, ± SD, n=3, read-out: Km (peptide substrate); for kcat (peptide substrate): 50 mM Tris pH 7.5, ± SD, n=3. Here is the method:
as §1

Series [3] deals with T2, HsPHD2^181-426 (Homo sapiens, UniProt Q9GZT9).
T2 construct: compared to the truncated human PHD isoform 2 (HsPHD2^181-426)
Kind of series: MALDI-TOF-MS peptide hydroxylation steady-state kinetics, HsPHD2^181-426. The note with it: peptide varied, 3.5–7.0 µM enzyme, 50 µM (NH4)2Fe(II)(SO4)2, 4 mM ascorbate, 300 µM 2OG; for Km: 50 mM Tris pH 7.5, Michaelis-Menten fit, ± SD, n=3, read-out: Km (peptide substrate); for kcat (peptide substrate): 50 mM Tris pH 7.5, ± SD, n=3. Format: biochemical. The method, then:
as §1

Series [4] deals with T1, TaPHD^64-300. Kind of series: 1D CLIP HSQC NMR binding studies with [^13C]-prolyl-labelled reporter ODD peptides. The note with it: 1:1 enzyme:ODD, 50 µM [^13C]-proline-labelled peptide, 50 µM TaPHD, Zn(II), 50 µM 2OG, 50 mM Tris-D11 pH 7.5, 10% D2O/90% H2O, n=3. Here is the method:
as §1
To more directly investigate the extent to which TaPHD^64-300 can bind HsHIF1α NODD and CODD, we performed 1D CLIP HSQC NMR binding studies with HsHIF1α CODD and HsHIF1α NODD peptides labeled with [^13C] at the target prolyl residues which undergo hydroxylation during catalysis (Figure 2C).

Series [5] deals with T2, HsPHD2^181-426. Also on record: method as in PMID 25120187. The note with it: previous studies, read-out: Km (peptide substrate), previous studies; cited from earlier work.
The next series has as its system HsPHD2 P317R. The note with it: HsPHD2 P317R variant; Figure S4, reference not given; cited from earlier work. From the text: (§2) In both the TaPHD.TaODD and HsPHD2.CODD[34] structures, a salt-bridge between an arginine residue in the C-terminal α4-helix and an aspartate residue in the C-terminus of the respective peptide (R292TaPHD/D494TaODD, R396HsPHD2/D571HsHIF1α CODD) is formed (Figure S4). However, this salt-bridge is not present in the HsPHD2.NODD complex structure, where the HsHIF1α NODD peptide is positioned further from the C-terminal helix and interacts with the C-terminal region of HsPHD2 via hydrophobic contacts. Studies with the TaODD and HsPHD2 variants, including with HsPHD2 P317RHsPHD2 and R396THsPHD2, wh ...

For series [6], the target named is T1, TaPHD^64-300. The note with it: TaPHD with natural substrate (500 µM); 20 µM enzyme, 125 µM Fe(II), 1 mM ascorbate, 400 µM 2OG, 50 mM Tris-D11 pH 7.5; ^1H NMR.
Series [7] addresses T1, TaPHD^64-300. The following applies: relative to TaODD 25mer and CODD 19mer; cited from earlier work. From the text: The HIF system in T. adhaerens is apparently markedly simpler than in humans because it contains only one PHD (TaPHD), and one HIFα isoform with a single ODD (TaODD, Figure 1A).[16] […] To further investigate the substrate preferences of TaPHD^64–300, its affini ...

In a further series the test system is HsPHD2 R396T. The following applies: HsPHD2 R396T variant; Figure S4, reference not given; cited from earlier work.
Description: as §2

Substrate in series [8]: O=C(O)CCC(=O)C(=O)O
The series is described as follows: MALDI-TOF-MS peptide hydroxylation steady-state kinetics, TaPHD^64-300. Format: biochemical, Trichoplax adhaerens. The note with it: other: TaPHD^64-300, 2OG varied, 100 µM peptide, 50 µM (NH4)2Fe(II)(SO4)2, 4 mM ascorbate, 50 mM Tris pH 7.5, ± SD, n=3, 37.0 °C.

T2 sequence (Q9GZT9 181-426): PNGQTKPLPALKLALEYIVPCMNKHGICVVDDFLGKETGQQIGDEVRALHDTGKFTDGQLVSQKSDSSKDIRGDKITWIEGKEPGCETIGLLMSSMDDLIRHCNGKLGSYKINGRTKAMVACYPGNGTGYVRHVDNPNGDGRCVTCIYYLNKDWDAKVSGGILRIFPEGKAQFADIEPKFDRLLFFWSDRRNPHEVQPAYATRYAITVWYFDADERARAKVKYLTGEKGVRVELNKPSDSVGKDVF

With `O=O` [O2, oxygen], the Michaelis constant (Km) is > 400 µM at TaPHD^64-300 [1] (4 µM enzyme, 100 µM TaODD, 50 µM Fe(II), 300 µM 2OG, 4 mM ascorbate, 50 mM Tris pH 7.5, 37°C, varied % O2, n=3) and > 400 µM with HsPHD2. For the same molecule, at TaPHD^64-300 [1] (at 60% O2 level, 37°C, pH 7.5), the “O2 saturation (in words)” value was “No saturation of O2 was reached”.
Turning to “PINEKEDYDDLAPFVPPPSFDNRLY-NH2 [TaODD 25mer, 25mer peptide of the single ODD of T. adhaerens HIFα, natural substrate of TaPHD]”, on TaPHD^64-300 [2], the “hydroxylation by TaPHD (in words)” value was “efficiently catalyzes the hydroxylation”, the Michaelis constant (Km) was found to be 11.5 ± 1.8 µM and the “kcat (peptide substrate)” value stood at 0.026 ± 0.001 s⁻¹. Moreover, on HsPHD2^181-426 [3], the Km is 40.5 ± 4.9 µM and the “kcat (peptide substrate)” value amounted to 0.035 ± 0.002 s⁻¹.
“DLDLEMLAPYIPMDDDFQL-NH2 [HsHIF1α CODD 19mer, 19mer peptide of the human HIF1α C-terminal ODD]”: on TaPHD^64-300 [2], the “hydroxylation by TaPHD (in words)” value is reported as “efficiently catalyzes the hydroxylation”, the Km was 15.1 ± 2.2 µM and the “kcat (peptide substrate)” value came to 0.012 ± 0.001 s⁻¹. At HsPHD2^181-426 [3], the Km was 10.8 ± 1.9 µM and the “kcat (peptide substrate)” value was determined as 0.027 ± 0.001 s⁻¹. Further, on TaPHD^64-300 [4], the “binding to TaPHD (in words)” value was “higher binding affinity of TaPHD for HsHIF1α CODD over NODD; also recorded: apparently completely bound”. Further, the Michaelis-Menten constant (Km) on HsPHD2^181-426 [5] is 9 ± 3 µM. Moreover, the “ODD selectivity of HsPHD2 P317R (in words)” value in the series with HsPHD2 P317R is reported as “selective for CODD”.
Turning to `O=C(O)CCC(=O)C(=O)O` [2OG, 2-oxoglutarate], on TaPHD^64-300 [6], the “2OG decarboxylation in presence of substrate” value is on record as “strongly increased in presence of substrate”.
On to “DALTLLAPAAGDTIISLDF-NH2 [HsHIF1α NODD 19mer, 19mer peptide of the human HIF1α N-terminal ODD]”, for which, on TaPHD^64-300 [2], the “hydroxylation by TaPHD (in words)” value was “not turned over above background level”. In addition, at TaPHD^64-300 [7], the “hydroxylation by TaPHD, earlier report (in words)” value is given as “hydroxylated less efficiently”. Further, the “ODD selectivity of HsPHD2 R396T (in words)” value with HsPHD2 R396T is given as “NODD”.

B1: TaPHD^64-300 (Trichoplax adhaerens) (protein)
chain: MDERRPKIGCDKTGLALEKTWQLQKNERLSNMVVNQLNTNGFCIINNFLGSSCSTEVLQQVLNLYQSGVFSNGQLARNVSVNRIRGDKIAWIGGDERGCEAIKYLSSCVDSLISRCNGRLGNYMITGRTKCMVACYPGSGLGYIRHIDNPNRDGRCVTVLYYLNPNWNSQDCGGQLWLYPNNENKVVKIDPIFDRLLLFWSDRRNPHEVKPAYAMRYAITLWYFDEKERALSSQNGT
For B1, the Michaelis constant (Km) in [8] came out at 1.9 ± 0.3 µM.
